Experimental findings from patent publication US10487054B2, “Therapeutic compounds” (REGENTS OF THE UNIVERSITY OF MINNESOTA, priority 2017, dated 2019) are described below.

The subject of the assay is AP-1 activity in A431 cells. As to the kind of experiment: AP-1 luciferase reporter assay in control or TOPK knockdown cells. Format: cell-based, human. The procedure:
The cells were cultured, treated for 4 h with different concentrations of compound 1 and then exposed to SUV (60 kJ UVA/m^2 and 2.9 kJ UVB/m^2), followed by an additional 15-minute incubation. Cells were harvested and the levels of phosphorylated and total proteins were determined by Western blot analysis with specific antibodies as indicated. […] The cells were cultured and treated with different concentrations of compound 1 for 24 h. Cells were harvested and the levels of phosphorylated and total proteins were determined by Western blot analysis with specific antibodies as indicated. […] For the luciferase assay, JB6 P+ cells stably transfected with an AP-1 luciferase reporter plasmid were cultured. […] Luciferase activity was measured and AP-1 activity is expressed relative to control cells without SUV treatment. […] Luciferase and 3-galactosidase activities were measured using reagents included in the reporter assay system (right). […] Significant differences were evaluated using one-way ANOVA and the asterisks (*) indicate a significant effect (*, p<0.05; **, p<0.001; ***, p<0.0001). […]
Stable control or TOPK knockdown cells were co-transfected with 100 ng of the AP-1 luciferase reporter plasmid and 50 ng of an internal control […] plasmid. […] Luciferase and β-galactosidase activities were measured using the Luminoskan Ascent and Multiskan MCC (Labsystems), respectively. […]
For orientation: A reporter such as luciferase makes a cellular process visible.

With `O=C1Nc2ccc(C34CC5CC(CC(C5)C3)C4)cc2C1=NO` [compound 1, 5-(adamantan-1-yl)-3-(hydroxyimino)indolin-2-one], the AP-1 activity entry runs as follows: (A431 TOPK knockdown group, highest concentration (5 μM)) “only slightly affected”; (A431 control group, 24 h) “inhibited by compound 1 in a dose-dependent manner”.
